Laboratory results from EP0260606A2, “Medicament for curing neurotic disturbance or disorder comprising sialocylglycerolipid” (MECT CORPORATION, priority 1986, dated 1988).
“And” between values parts separate entries of the source, which are not always exact repeats. Identical values can stand only once. Like-named read-outs stand apart in the source and are kept apart here. Marks after values point to notes of the source that are not given here.

How the values were obtained:
[1] = test system: rat having its nigral depaminergic neuron destroyed; assay: Methamphethamine-induced rotational movement after 6-hydroxydopamine lesion and fetal dopaminergic cell transplantation; assay type: in vivo; details: for Average of Rotational Movement of Rats (Average + S.D.): group average; for Average of Rotational Movement of Rats (Average + S.D.) / Number of Rotational Movement of Rats: 30 mg/kg; for Number of Rotational Movement of Rats: individual rat, 30 mg/kg every day for two weeks from transplantation; for remedy of motor disturbance: result in words
Source text: The nigral dopaminergic neuron of the brain of a rat was chemically destroyed by injecting a very small quantity of 6-hydroxydopamine to cause motor disturbance.
After the lapse of two weeks, a fetal brain dopaminergic cell was transplanted on the Nucleus caudatus of the rat brain to try to remedy the motor disturbance.
The nigral depaminergic neuron at the left side of the brain of a female Wister family rat aged 4-weeks (Body Weight: l00 g) was destroyed by injecting a very small quantity of 6-hydroxydopamine.
After two weeks from the destruction by the administration of the drug, portions of the […] containing dopamin cells (i.e. substantia nigra and the Tegmentum at the abdomen side) were extracted from the fetal rat brain of a fetal rat of l4 to l7 days age, cut finely, and treated with trypsin. Then, the extracted tissues were incubated at 37°C for 30 minutes, and the tissues were subjected to pipetting to form a suspension. 5 µl each of the suspensions were transplanted on two sites of the Nucleus caudatus of the destructed side, the total of l0 µl (containing about l0⁵ cells) being transplanted.
The rotational movements caused by administration of methamphethamine were examined at the time point before 2 weeks of the transplantation (- 2W), at the time point before one week of the transplantation (- lW) and at the time point after two weeks of the transplantation (2W). The number of rotational movements within one minute were counted at l0 minute intervals after six administrations of methamphethamine, and the total number of rotational movements counted for the six times was averaged to find the mean rotational movement. As controls, the numbers of rotational movements of the rats administered, respectively, with a ganglioside mixture and GM₁ ganglioside were counted.

[2] = test system: rats having their sciatic nerves crushed; assay: Curing effect on rats with crushed sciatic nerve (distance between toes, weight of musculi soleus); assay type: in vivo, rat; details: for Recovery Rate (%) in Distance between the Fingers / Recovery Rate (%) in Weight of the Muscle: ip once per day, average ± S.D.; for Recovery Rate (%) in Weight of the Muscle: 28th Day
Method: The curing effect of the compound (I) of the invention on the rats having their sciatic nerves crushed, which were used as models caused by peripheral nervous disturbances, was assessed by examining (l) the change in action of the crushed hind leg and (2) the change in weight of the muscle as indicators for the modification of peripheral nerve and for the recovery course of the disturbance.
In the experiment, seven male Wister family rats (6 weeks age) were used per a group. The sciatic nerve of each rat was crushed in accordance with the method of Yamazu et al. (see Kiyomi Yamazu, Takenori Kaneko, Akifumi Kitahara and Isao Ohkawa, Journal of Japanese Pharmacological Society, 72, 259 - -268 (l976)) and in accordance with the method of Hasegawa et al. (see Kazuo Hasegawa, Naoji Mikuni and Yutaka Sakai, Journal of Japanese Pharmacological Society, 74, 72l - 734 (l978)). Specifically, under anesthesia with Pentobarbital (40 mg/kg, i.p.), the left sciatic nerve was exposed at the femur and the site 5 mm centrally from the branch portion between the N. tibialis and the N. suralis was crushed using a modified artery klemme having a width of 2 mm and gap of 0.l mm. Rats subjected to the operation were randomly dispensed to form the groups subjected to test.
The compound (I) of the invention was intraperitoneally administered one time per day from the day on which the nerve was crushed to the 22nd day. The control groups included a group administered with Mecobalamin (produced by Gedeon Richter Ltd.), a group administered with a 20% aqueous solution of propylene glycol (hereinafter referred to as 20% PG) which was used to dissolve the compound (I) of the invention, and a group administered with a 0.9% aqueous saline solution. The predetermined measurements were conducted with the lapse of time after the crushing operation (at the first, fourth, seventh, tenth, l4th, l5th, l7th, l9th 2lst and 28th days).
The distance between the toes was measured, since this is a good indicator showing the modification and recovery of the function of the nerve and the change thereof could conveniently measured with the lapse of time.
The measurement was conducted in accordance with the method of Hasegawa, (Hasegawa, K., Experientia, 34, 750 - 75l (l978)) by measuring the distance from the first toe to the fifth toe of the hind leg.
The ratio of the distance at the crushed side to the distance at the normal side was calculated as a percentage (%), the average values and the standard deviations (S.D.) being shown in Table 5.
It is known that removal of or disturbance in a certain nerve causes atrophy of the muscle controlled by the nerve, and the atrophy is gradually recovered by the recontrol by the nerve. For this reason, the quantitative change in weight of the muscle was selected as an indicator. At 28th day after the operation, the muscli soleus of both hind legs were extracted under anesthesia with Pentobarbital, and the weights of the muscles were weighed. The weight ratio of the muscli soleus at the crushed side to the muscli soleus at the normal side was calculated and represented by percentage (%).

Acute toxicity test = assay type: in vivo; details: mouse, in vivo, mortality at the 7th day, Probit method, read-out: LD₅₀
Method: (§1) The compound (I) was administered through two administration routes, i.e. orally and intravenous injection, to the groups each consisting of five male ddy mice, while increasing the dosage amounts little by little.
(§2) From the time immediately after the administration to the lapse of 7 days, the general syndrome and death of the mice were inspected. The medial lethal dose (LD₅₀) was calculated, through the Probit method, from the mortality rate at the 7th day from the beginning of administration. LD₅₀ = 58l mg/kg (through intraveous injection) 5000 mg/kg (through oral administration)

male ddy mice = assay: Acute toxicity test; assay type: in vivo; details: result in words
Method: as §1, §2

[3] = - 1W (before transplantation and dosing)
[4] = - 2W (before transplantation and dosing)

SMILES: CCCCCCCCCCCCCCOCC(COC1(C(=O)O)CC(O)C(NC(C)=O)C(C(O)C(O)CO)O1)OCCCCCCCCCCCCCC (stereo not drawn) [Compound (I)]
- Average of Rotational Movement of Rats (Average + S.D.) ([1]; 2W after transplantation): 2.8+4.0*
- Average of Rotational Movement of Rats (Average + S.D.) [1, 3]: 12.3+3.8
- Average of Rotational Movement of Rats (Average + S.D.) [1, 4]: 8.2+3.2
- Number of Rotational Movement of Rats ([1]; 2W after transplantation): 5.3 and 3.2 and 5.8
- Number of Rotational Movement of Rats [1, 3]: 17.4 and 12.2 and 8.4 and 11.0
- Number of Rotational Movement of Rats [1, 4]: 12.2 and 5.8 and 5.4 and 9.5
- remedy of motor disturbance [1]: effect of promoting the remedy of motor disturbance similar to the ganglioside mixtures
- remedy of motor disturbance ([1]; listed as compound (I)): had a function of remedying the nerves similar to gangliosides
- Recovery Rate (%) in Distance between the Fingers ([2]; 17th Day, 3 mg/kg, crushed side / normal side): 71.5 ± 5.5 %
- Recovery Rate (%) in Distance between the Fingers ([2]; 17th Day, 30 mg/kg): 80.4 ± 9.6 %
- Recovery Rate (%) in Distance between the Fingers ([2]; 19th Day, 3 mg/kg): 82.1 ± 9.7%
- Recovery Rate (%) in Distance between the Fingers ([2]; 19th Day, 30 mg/kg): 90.3 ± 4.4 %
- Recovery Rate (%) in Weight of the Muscle ([2]; 3 mg/kg, musculi soleus, crushed side / normal side): 82.8 ± 6.7%
- Recovery Rate (%) in Weight of the Muscle ([2]; 30 mg/kg): 89.1 ± 5.7%
- recovery of the distance between the toes and the weight of the musculi soleus ([2]; result in words): promoted the recovery to the normal values
- LD50 at 168 h (Acute toxicity test; intravenous injection): 581 mg/kg
- LD50 at 168 h (Acute toxicity test; oral administration): 5000 mg/kg
- toxicity (male ddy mice): extremely low toxicity
